The text below walks through data of patent publication US20120264735A1 (priority 2009, published 2012).

One may read the IC50 as the concentration that inhibits the measured activity by half.

The target in the test is T1, c-Met kinase (recombinant c-Met) (Homo sapiens, UniProt P08581).
T1 construct: 0.27 nM recombinant c-Met
T1 sequence (P08581 25-1390): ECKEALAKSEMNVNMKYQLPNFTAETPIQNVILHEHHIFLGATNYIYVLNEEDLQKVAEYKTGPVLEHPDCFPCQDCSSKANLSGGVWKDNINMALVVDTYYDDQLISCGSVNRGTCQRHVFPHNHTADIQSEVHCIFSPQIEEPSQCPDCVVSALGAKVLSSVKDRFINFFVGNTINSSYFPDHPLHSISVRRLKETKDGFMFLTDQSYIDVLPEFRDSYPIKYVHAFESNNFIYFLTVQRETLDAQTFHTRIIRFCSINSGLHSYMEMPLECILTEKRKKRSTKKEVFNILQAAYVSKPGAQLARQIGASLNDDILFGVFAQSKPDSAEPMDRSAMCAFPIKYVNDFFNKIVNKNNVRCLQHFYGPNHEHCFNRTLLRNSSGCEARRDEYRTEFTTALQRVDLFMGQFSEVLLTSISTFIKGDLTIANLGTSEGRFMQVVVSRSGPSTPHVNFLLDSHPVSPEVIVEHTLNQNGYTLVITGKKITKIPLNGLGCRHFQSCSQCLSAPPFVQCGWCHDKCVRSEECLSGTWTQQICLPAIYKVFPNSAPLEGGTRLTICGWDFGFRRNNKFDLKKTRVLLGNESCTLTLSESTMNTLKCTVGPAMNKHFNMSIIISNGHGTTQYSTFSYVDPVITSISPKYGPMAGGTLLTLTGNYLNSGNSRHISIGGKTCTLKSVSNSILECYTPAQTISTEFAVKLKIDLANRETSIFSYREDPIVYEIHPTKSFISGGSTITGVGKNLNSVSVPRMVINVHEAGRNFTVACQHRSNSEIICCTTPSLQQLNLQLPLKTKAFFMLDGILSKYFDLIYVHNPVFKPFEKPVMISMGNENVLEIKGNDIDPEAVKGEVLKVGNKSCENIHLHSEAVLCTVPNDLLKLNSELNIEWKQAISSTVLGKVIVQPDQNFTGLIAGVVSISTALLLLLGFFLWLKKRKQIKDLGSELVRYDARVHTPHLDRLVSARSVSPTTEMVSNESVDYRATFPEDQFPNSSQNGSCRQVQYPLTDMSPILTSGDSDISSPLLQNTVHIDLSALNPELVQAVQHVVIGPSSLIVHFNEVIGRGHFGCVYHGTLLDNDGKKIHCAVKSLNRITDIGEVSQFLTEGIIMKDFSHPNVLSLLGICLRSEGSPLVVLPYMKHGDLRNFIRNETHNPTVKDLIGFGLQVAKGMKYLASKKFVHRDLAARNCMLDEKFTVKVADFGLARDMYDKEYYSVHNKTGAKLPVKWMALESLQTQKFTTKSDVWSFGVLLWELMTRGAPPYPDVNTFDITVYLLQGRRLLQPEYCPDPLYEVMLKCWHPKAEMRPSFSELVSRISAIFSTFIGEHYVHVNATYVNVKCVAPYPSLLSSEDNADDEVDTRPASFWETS
The test can be described thus: In vitro kinase assay I (homogeneous time-resolved fluorescence tyrosine kinase assay). It is filed as biochemical. The essentials: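 Biotinylated peptide (0.5 μM) phosphorylated by 0.2 nM recombinant c-Met with 50 μM MgATP, 60 min at room temperature, pH 7.4, 5% DMSO. EDTA stop; HTRF read with Eu-anti-phosphotyrosine antibody and streptavidin-APC. IC50 from 4-parameter logistic fit.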
Take `N#Cc1cccc(-n2ccc(=O)c(Cc3cccc(NC(=O)OCCN4CCOCC4)c3)n2)c1` [Example 597, 2-morpholin-4-ylethyl (3-{[1-(3-cyanophenyl)-4-oxo-1,4-dihydropyridazin-3-yl]methyl}phenyl)carbamate]: the IC50 was less than 100 nM. Regarding `N#Cc1cccc(-n2ccc(=O)c(Cc3cccc(NC(=O)OCCC4CCOCC4)c3)n2)c1` [Example 598, 2-(tetrahydro-2H-pyran-4-yl)ethyl (3-{[1-(3-cyanophenyl)-4-oxo-1,4-dihydropyridazin-3-yl]methyl}phenyl)carbamate], the IC50 was less than 100 nM.

With `COCCOCCOC(=O)Nc1cccc(Cc2nn(-c3cc(F)c(F)c(F)c3)ccc2=O)c1` [Example 599, 2-(2-methoxyethoxy)ethyl (3-{[4-oxo-1-(3,4,5-trifluorophenyl)-1,4-dihydropyridazin-3-yl]methyl}phenyl)carbamate], the concentration for half-maximal inhibition (IC50) is less than 100 nM.

Turning to `COCCOCCOC(=O)Nc1cccc(Cc2nn(-c3cccc(C#N)c3)ccc2=O)c1` [Example 600, 2-(2-methoxyethoxy)ethyl (3-{[1-(3-cyanophenyl)-4-oxo-1,4-dihydropyridazin-3-yl]methyl}phenyl)carbamate], the IC50 was less than 100 nM. As for `COCCOCCOC(=O)Nc1cccc(Cc2nn(-c3ccc(F)c(F)c3)ccc2=O)c1` [Example 602, 2-(2-methoxyethoxy)ethyl (3-{[1-(3,4-difluorophenyl)-4-oxo-1,4-dihydropyridazin-3-yl]methyl}phenyl)carbamate], the figure is less than 100 nM; as for `O=C1CN(CCOC(=O)Nc2cccc(Cc3nn(-c4cc(F)cc(F)c4)ccc3=O)c2)CCN1` [Example 604, 2-(3-oxopiperazin-1-yl)ethyl (3-{[1-(3,5-difluorophenyl)-4-oxo-1,4-dihydropyridazin-3-yl]methyl}phenyl)carbamate], less than 100 nM. Take `O=C(Nc1cccc(Cc2nn(-c3cc(F)cc(F)c3)ccc2=O)c1)OCCN1CCOCC1=O` [Example 605, 2-(3-oxomorpholin-4-yl)ethyl (3-{[1-(3,5-difluorophenyl)-4-oxo-1,4-dihydropyridazin-3-yl]methyl}phenyl)carbamate]: the IC50 is less than 100 nM. As for `O=C(Nc1cccc(Cc2nn(-c3cc(F)cc(F)c3)ccc2=O)c1)OCC1CCOCC1` [Example 606, tetrahydro-2H-pyran-4-ylmethyl (3-{[1-(3,5-difluorophenyl)-4-oxo-1,4-dihydropyridazin-3-yl]methyl}phenyl)carbamate], the figure is less than 100 nM; as for `COCCOCCOC(=O)Nc1cccc(Cc2nn(-c3cc(F)cc(F)c3)ccc2=O)c1` [Example 608, 2-(2-methoxyethoxy)ethyl (3-{[1-(3,5-difluorophenyl)-4-oxo-1,4-dihydropyridazin-3-yl]methyl}phenyl)carbamate], less than 100 nM; as for `Cn1cc(-n2ccc(=O)c(Cc3cccc(NC(=O)OCC4CC(C)(C)OC(C)(C)C4)c3)n2)cn1` [Example 609, (2,2,6,6-tetramethyltetra-hydro-2H-pyran-4-yl)methyl (3-{[1-(1-methyl-1H-pyrazol-4-yl)-4-oxo-1,4-dihydropyridazin-3-yl]methyl}phenyl)carbamate], less than 100 nM. Under `Cn1cc(-n2ccc(=O)c(Cc3cccc(NC(=O)OCC4(F)CCOCC4)c3)n2)cn1` [Example 613, (4-fluorotetrahydro-2H-pyran-4-yl)methyl (3-{[1-(1-methyl-1H-pyrazol-4-yl)-4-oxo-1,4-dihydropyridazin-3-yl]methyl}phenyl)carbamate] stands less than 100 nM; under `Cn1cc(-n2ccc(=O)c(Cc3cccc(NC(=O)OCC(F)(F)CN)c3)n2)cn1` [Example 614, 3-Amino-2,2-difluoropropyl (3-{[1-(1-methyl-1H-pyrazol-4-yl)-4-oxo-1,4-dihydropyridazin-3-yl]methyl}phenyl)carbamate], less than 100 nM. As for `Cn1cc(-n2ccc(=O)c(Cc3cccc(NC(=O)OC[C@H]4CCCN4)c3)n2)cn1` [Example 615, (2R)-pyrrolidin-2-ylmethyl (3-{[1-(1-methyl-1H-pyrazol-4-yl)-4-oxo-1,4-dihydropyridazin-3-yl]methyl}phenyl)carbamate], the figure is 100 to 1000 nM; as for `Cn1cc(-n2ccc(=O)c(Cc3cccc(NC(=O)OC[C@@H]4CCCN4)c3)n2)cn1` [Example 616, (2S)-pyrrolidin-2-ylmethyl (3-{[1-(1-methyl-1H-pyrazol-4-yl)-4-oxo-1,4-dihydropyridazin-3-yl]methyl}phenyl)carbamate], 100 to 1000 nM. On to `Cn1cc(-n2ccc(=O)c(Cc3cccc(NC(=O)OCC4CCNCC4)c3)n2)cn1` [Example 617, piperidin-4-ylmethyl (3-{[1-(1-methyl-1H-pyrazol-4-yl)-4-oxo-1,4-dihydropyridazin-3-yl]methyl}phenyl)carbamate], for which the IC50 is less than 100 nM. Under `Cn1cc(-n2ccc(=O)c(Cc3cccc(NC(=O)OC4CCNCC4)c3)n2)cn1` [Example 618, piperidin-4-yl (3-{[1-(1-methyl-1H-pyrazol-4-yl)-4-oxo-1,4-dihydropyridazin-3-yl]methyl}phenyl)carbamate] stands 100 to 1000 nM. For the molecule `Cn1cc(-n2ccc(=O)c(Cc3cccc(NC(=O)OCC4(F)CCNCC4)c3)n2)cn1` [Example 620, (4-fluoropiperidin-4-yl)methyl (3-{[1-(1-methyl-1H-pyrazol-4-yl)-4-oxo-1,4-dihydropyridazin-3-yl]methyl}phenyl)carbamate], the IC50 was less than 100 nM. As for `CNCCOC(=O)Nc1cccc(Cc2nn(-c3cc(F)c(F)c(F)c3)ccc2=O)c1` [Example 622, 2-(methylamino)ethyl (3-{[4-oxo-1-(3,4,5-trifluorophenyl)-1,4-dihydropyridazin-3-yl]methyl}phenyl)carbamate], the figure is less than 100 nM; as for `O=C(Nc1cccc(Cc2nn(-c3cc(F)c(F)c(F)c3)ccc2=O)c1)OCCCN1CCNCC1` [Example 623, 3-piperazin-1-ylpropyl (3-{[4-oxo-1-(3,4,5-trifluorophenyl)-1,4-dihydropyridazin-3-yl]methyl}phenyl)carbamate], less than 100 nM; as for `Cn1cc(-n2ccc(=O)c(Cc3cccc(NC(=O)OCCC4CCNCC4)c3)n2)cn1` [Example 624, 2-piperidin-4-ylethyl (3-{[1-(1-methyl-1H-pyrazol-4-yl)-4-oxo-1,4-dihydropyridazin-3-yl]methyl}phenyl)carbamate], less than 100 nM. Under `Cn1cc(-n2ccc(=O)c(Cc3cccc(NC(=O)OCCN4CCNCC4)c3)n2)cn1` [Example 625, 2-piperazin-1-ylethyl (3-{[1-(1-methyl-1H-pyrazol-4-yl)-4-oxo-1,4-dihydropyridazin-3-yl]methyl}phenyl)carbmate] stands less than 100 nM; under `Cn1cc(-n2ccc(=O)c(Cc3cccc(NC(=O)OCCCN4CCNCC4)c3)n2)cn1` [Example 626, 3-piperazin-1-ylpropyl (3-{[1-(1-methyl-1H-pyrazol-4-yl)-4-oxo-1,4-dihydropyridazin-3-yl]methyl}phenyl)carbamate], less than 100 nM.

For the molecule `N#Cc1cccc(-n2ccc(=O)c(Cc3cccc(NC(=O)OCC4CNC4)c3)n2)c1` [Example 627, azetidin-3-ylmethyl (3-{[1-(3-cyanophenyl)-4-oxo-1,4-dihydropyridazin-3-yl]methyl}phenyl)carbamate], the IC50 is less than 100 nM. As for `O=C(Nc1cccc(Cc2nn(-c3cc(F)cc(F)c3)ccc2=O)c1)OCCN1CCNCC1` [Example 628, 2-piperazin-1-ylethyl (3-{[1-(3,5-difluorophenyl)-4-oxo-1,4-dihydropyridazin-3-yl]methyl}phenyl)carbamate], the figure is less than 100 nM. On to `Cn1cc(-n2ccc(=O)c(Cc3cccc(NC(=O)OCC(=O)O)c3)n2)cn1` [Example 629, ({[(3-{[1-(1-Methyl-1H-pyrazol-4-yl)-4-oxo-1,4-dihydropyridazin-3-yl]methyl}phenyl)amino]carbonyl}oxy)acetic acid], for which the IC50 fell in the range of 1000 to 3000 nM. Under `Cn1cc(-n2ccc(=O)c(Cc3cccc(NC(=O)OCCO)c3)n2)cn1` [Example 630, 2-Hydroxyethyl(3-{[1-(1-methyl-1H-pyrazol-4-yl)-4-oxo-1,4-dihydropyridazin-3-yl]methyl}phenyl)carbamate] stands less than 100 nM; under `CC(=O)Nc1cccc(Cc2nn(-c3ccccc3)ccc2=O)c1` [Example 631, N-{3-[(4-Oxo-1-phenyl-1,4-dihydropyridazin-3-yl)methyl]phenyl}acetamide], 1000 to 3000 nM; under `Cn1cc(-n2ccc(=O)c(Cc3cccc(NC(=O)Cc4ccccc4)c3)n2)cn1` [Example 632, N-(3-{[1-(1-methyl-1H-pyrazol-4-yl)-4-oxo-1,4-dihydropyridazin-3-yl]methyl}phenyl)-2-phenylacetamide], 1000 to 3000 nM. As for `Cn1cc(-n2ccc(=O)c(Cc3cccc(NC(=O)CCc4ccccc4)c3)n2)cn1` [Example 633, N-(3-{[1-(1-methyl-1H-pyrazol-4-yl)-4-oxo-1,4-dihydropyridazin-3-yl]methyl}phenyl)-3-phenylpropanamide], the figure is less than 100 nM; as for `CCCC(=O)Nc1cccc(Cc2nn(-c3cnn(C)c3)ccc2=O)c1` [Example 634, N-(3-{[1-(1-methyl-1H-pyrazol-4-yl)-4-oxo-1,4-dihydropyridazin-3-yl]methyl}phenyl)butanamide], 100 to 1000 nM; as for `CCC(=O)Nc1cccc(Cc2nn(-c3cnn(C)c3)ccc2=O)c1` [Example 635, N-(3-{[1-(1-methyl-1H-pyrazol-4-yl)-4-oxo-1,4-dihydropyridazin-3-yl]methyl}phenyl)propanamide], 100 to 1000 nM. Under `Cn1cc(-n2ccc(=O)c(Cc3cccc(N4CCCC4=O)c3)n2)cn1` [Example 636, 1-(1-Methyl-1H-pyrazol-4-yl)-3-[3-(2-oxopyrrolidin-1-yl)benzyl]pyridazin-4(1H)-one] stands 100 to 1000 nM. In the case of `Cn1cc(-n2ccc(=O)c(Cc3cccc(N4CCOC4=O)c3)n2)cn1` [Example 637, 1-(1-Methyl-1H-pyrazol-4-yl)-3-[3-(2-oxo-1,3-oxazolidin-3-yl)benzyl]pyridazin-4(1H)-one], the IC50 was 1000 to 3000 nM.
